Starred links: 1 amine or outer side, 2 acyl side, 3 side chain; linkers in the order of their positions; H or OH if unused. Positions of bridges follow the written chain, without caps; N, C: chain ends. Non-standard residues stand in square brackets, D forms with d. Primed or numbered codes have the meaning given here. Chains are numbered I, II in the order given. No end group written: not given here. *: point of attachment. X1 = O=C(CCOCCOCCOCCN(CCOCCOCCOCCn1cc(CCC(=O)[*:2])nn1)CCOCCOCCOCCn1cc(CCC(=O)[*:3])nn1)[*:1]; PYA″ = 4-pentynoic acid, acylating the D-Lys side chain, alkyne clicked to the linker azide; PYA(3) = 4-pentynoic acid, on D-Lys NZ, clicked (triazole) to the linker azide; X2 = O=C(CCSCCC(=O)[*:1])N1CN(C(=O)CC[*:2])CN(C(=O)CC[*:3])C1; TATA = O=C(CC[*:1])N1CN(C(=O)CC[*:2])CN(C(=O)CC[*:3])C1; γGlu = O=C(O)[C@H](CCC(=O)[*:2])N[*:1]; His(τ-Me) = Cn1cnc(C[C@H](N)C(=O)O)c1; d1Nal = N[C@H](Cc1cccc2ccccc12)C(=O)O; Palmitoyl = CCCCCCCCCCCCCCCC(=O)*; Hyp = O=C(O)[C@@H]1C[C@@H](O)CN1; hArg = N=C(N)NCCCC[C@H](N)C(=O)O; tBuAla = CC(C)(C)C[C@H](N)C(=O)O; Aad = N[C@@H](CCCC(=O)O)C(=O)O; Cba = N[C@@H](CC1CCC1)C(=O)O; dK(PYA) = not defined here; Nle = CCCC[C@H](N)C(=O)O; Pent4ynoyl = C#CCCC(=O)*; Mpa = O=C(O)CCS
Target: CD137 (Homo sapiens, UniProt Q07011)
Sequence (Q07011 24-255): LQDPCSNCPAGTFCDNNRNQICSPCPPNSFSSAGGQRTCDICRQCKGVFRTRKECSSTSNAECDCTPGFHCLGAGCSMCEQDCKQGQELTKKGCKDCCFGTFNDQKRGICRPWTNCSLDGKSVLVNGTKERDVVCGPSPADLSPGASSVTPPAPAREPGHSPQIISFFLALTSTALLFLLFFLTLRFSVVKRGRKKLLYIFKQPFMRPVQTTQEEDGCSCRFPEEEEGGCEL
Assay: CD137 reporter assay (Promega, Jurkat cells) in co-culture with EphA2-expressing tumor cells (A549, PC3, HT29)
Type: cell-based
Set-up: host or cells: Jurkat reporter cells
Settings: for Fold Improvement over BCY9173, EC50 (nM) / Fold Improvement over Emax: co-culture with PC3; for Fold Improvement over Emax: versus BCY9173; for fold induction / Emax (fold induction over background): CD137 reporter coculture assay with PC3 tumor cells; for fold induction: read-out: Emax (fold induction over background); for EC50: EC50, CD137 reporter coculture assay with PC3 tumor cells
Procedure: Culture medium, referred to as R1 media, is prepared by adding 1% FBS to RPMI-1640 (component of Promega kit CS196005). Serial dilutions of test articles in R1 are prepared in a sterile 96 well-plate. Add 25 μL per well of test articles or R1 (as a background control) to designated wells in a white cell culture plate. Tumor cells* are harvested and resuspended at a concentration of 400,000 cells/mL in R1 media. Twenty five (25) μL/well of tumor cells are added to the white cell culture plate. Jurkat cells (Promega kit CS196005, 0.5 mL) are thawed in the water bath and then added to 5 ml pre-warmed R1 media. Twenty five (25) μL/well of Jurkat cells are then added to the white cell culture plate. Incubate the cells and test articles for 6 h at 37° C., 5% CO2. At the end of 6 h, add 75 μL/well Bio-Glo™ reagent (Promega) and incubate for 10 min before reading luminescence in a plate reader (Clariostar, BMG). The fold change relative to cells alone (Jurkat cells+Cell line used in co-culture) is calculated and plotted in GraphPad Prism as log(agonist) vs response to determine EC50 (nM) and Fold Induction over background (Max).
The tumor cell types used in co-culture for EphA2 are A549, PC3 and HT29. The tumor cell type used in co-culture for PD-L1 is RKO.

Substance | Fold Improvement over BCY9173, EC50 (nM) | Fold Improvement over Emax | fold induction | EC50 | Emax (fold induction over background)
BCY12732: EphA2:CD137 1:2; BCY9594 + 2x BCY12360; linker N-(acid-PEG3)-N-bis(PEG3-azide) (peptide 1 A[hArg]DC[Hyp]LVNPLCLHP[dD]W[hArg]C; peptide 2 {Palmitoyl-γGlu-γGlu}-C[tBuAla]PE[dK(PYA)]PYCFADPY[Nle]C; linker I:4-I:11-I:18 via TATA (inferred); linker II:1-II:8-II:15 via TATA; not fully specified (N-terminus); reading uncertain; also: chain 2 twice (1:2 complex), linker at chain B 5 to a chain's N-terminus via N-(acid-PEG3)-N-bis(PEG3-azide)) | 0.5 fold | 0.4 fold |  |  | 
I: [dA][dA]DC[Hyp]LVNPLCLEP[dD]WTC-NH2 / II: Ac-C[tBuAla]PE[dK]PYCFADPY[Nle]CA-NH2 / III: Ac-C[tBuAla]PE[dK]PYCFADPY[Nle]CA-NH2 (linker I:4-I:11-I:18, II:1-II:8-II:15, III:1-III:8-III:15 via TATA; linker I:N-II:5-III:5 via X1) [BCY13281] |  |  | 35.6 | 0.17 nM | 
I: A[hArg]DC[Hyp]LVNPLCLHP[d1Nal]W[hArg]C-NH2 / II: Ac-C[tBuAla]PE[dK]PYCFADPY[Nle]CA-NH2 / III: Ac-C[tBuAla]PE[dK]PYCFADPY[Nle]CA-NH2 (linker I:4-I:11-I:18, II:1-II:8-II:15, III:1-III:8-III:15 via TATA; linker I:N-II:5-III:5 via X1) [BCY13270] |  |  | 42.5 | 0.1 nM | 
BCY14050: EphA2:CD137 1:2; BCY13918 + 2x BCY8928; linker N-(acid-PEG3)-N-bis(PEG3-azide) (peptide 1 A[hArg]DC[Hyp]LVNPLCL[His(τ-Me)]P[dD]W[hArg]C; peptide 2 Ac-C[tBuAla]PE[dK](PYA″)PYCFADPY[Nle]CA; linker I:4-I:11-I:18, II:1-II:8-II:15 via TATA (inferred); not fully specified (N-terminus, bridges); also: 2x chain 2 (2x BCY8928) on linker) | 2.05 fold | 1.91 fold |  |  | 
I: A[hArg]DC[Hyp]LVNPLCLEP[dD]W[hArg]C-NH2 / II: Ac-C[tBuAla]PE[dK]PYCFADPY[Nle]CA-NH2 / III: Ac-C[tBuAla]PE[dK]PYCFADPY[Nle]CA-NH2 (linker I:4-I:11-I:18, II:1-II:8-II:15, III:1-III:8-III:15 via TATA; linker I:N-II:5-III:5 via X1) [BCY13042] |  |  | 58.3 | 0.08 nM | 
I: Ac-A[hArg]DC[Hyp]LVNPLCLHP[dD]W[hArg]CK-NH2 / II: Ac-C[tBuAla]PE[dK]PYCFADPY[Nle]CA-NH2 / III: Ac-C[tBuAla]PE[dK]PYCFADPY[Nle]CA-NH2 (linker I:4-I:11-I:18, II:1-II:8-II:15, III:1-III:8-III:15 via TATA; linker I:19-II:5-III:5 via X1) [BCY12973] |  |  | 48.6 | 0.16 nM | 
BCY14334: EphA2:CD137 1:2; BCY14313 + 2x BCY8928; linker N-(acid-PEG3)-N-bis(PEG3-azide) (peptide 1 A[hArg]DC[Hyp]LVNPLCLKP[dD]W[hArg]C; peptide 2 Ac-C[tBuAla]PE[dK](Pent4ynoyl)PYCFADPY[Nle]CA; linker I:4-I:11-I:18, II:1-II:8-II:15 via TATA (inferred); not fully specified (some residues, N-terminus); also: 1:2 complex: chain 1 N-terminus joined to dLys(PYA)5 of two chain 2 copies via N-(acid-PEG3)-N-bis(PEG3-azide) linker) | 7.21 fold | 1.62 fold |  |  | 
I: C[Hyp]LVNPLCLEP[dD]WTC[dA]-NH2 / II: Ac-C[tBuAla]PE[dK]PYCFADPY[Nle]CA-NH2 / III: Ac-C[tBuAla]PE[dK]PYCFADPY[Nle]CA-NH2 (linker I:1-I:8-I:15, II:1-II:8-II:15, III:1-III:8-III:15 via TATA; linker I:N-II:5-III:5 via X1) [BCY13049] |  |  |  |  | 46.03
I: [dA][hArg]DC[Hyp][Cba]VNPLCLEP[dD]WTC[dA]-NH2 / II: Ac-C[tBuAla]PE[dK]PYCFADPY[Nle]CA-NH2 / III: Ac-C[tBuAla]PE[dK]PYCFADPY[Nle]CA-NH2 (linker I:4-I:11-I:18, II:1-II:8-II:15, III:1-III:8-III:15 via TATA; linker I:N-II:5-III:5 via X1) [BCY13052] |  |  | 32.9 | 0.21 nM | 
I: A[hArg]DC[Hyp]LVNPLCLEP[dD]WTC-NH2 / II: [Mpa][tBuAla]EE[dK]PYCFADPY[Nle]C-NH2 / III: [tBuAla]EE[dK]PYCFADPY[Nle]C-NH2 (linker I:4-I:11-I:18, II:1-II:8-II:15 via TATA; linker I:N-II:5-III:4 via X1; linker III:N-III:7-III:14 via X2) [BCY13140] |  |  |  | 0.12 nM | 46.70
I: A[hArg]EC[Hyp]LVNPLCLHP[dE]W[hArg]C-NH2 / II: Ac-C[tBuAla]PE[dK]PYCFADPY[Nle]CA-NH2 / III: Ac-C[tBuAla]PE[dK]PYCFADPY[Nle]CA-NH2 (linker I:4-I:11-I:18, II:1-II:8-II:15, III:1-III:8-III:15 via TATA; linker I:N-II:5-III:5 via X1) [BCY12978] |  |  | 78.1 |  | 
I: A[hArg]DC[Hyp]LVNPLCLHP[dD]W[hArg]C-NH2 / II: [Mpa][tBuAla]EE[dK]PYCFADPY[Nle]C-NH2 / III: [tBuAla]EE[dK]PYCFADPY[Nle]C-NH2 (linker I:4-I:11-I:18, II:1-II:8-II:15 via TATA; linker I:N-II:5-III:4 via X1; linker III:N-III:7-III:14 via X2) [BCY13139] |  |  |  | 0.16 nM | 43.75
I: A[hArg]DC[Hyp]LVNPLCLEP[dD]WTC-NH2 / II: [Mpa][tBuAla]PE[dK]PYCFADPY[Nle]C-NH2 / III: [tBuAla]PE[dK]PYCFADPY[Nle]C-NH2 (linker I:4-I:11-I:18, II:1-II:8-II:15 via TATA; linker I:N-II:5-III:4 via X1; linker III:N-III:7-III:14 via X2) [BCY13138] |  |  | 32.6 | 0.17 nM | 
I: Ac-A[hArg]DC[Hyp]KVNPLCLHP[dD]W[hArg]C-NH2 / II: Ac-C[tBuAla]PE[dK]PYCFADPY[Nle]CA-NH2 / III: Ac-C[tBuAla]PE[dK]PYCFADPY[Nle]CA-NH2 (linker I:4-I:11-I:18, II:1-II:8-II:15, III:1-III:8-III:15 via TATA; linker I:6-II:5-III:5 via X1) [BCY12975] |  |  | 68.8 | 0.16 nM | 
I: A[hArg]DC[Hyp]LVNPLCL[Nle]P[dD]W[hArg]C-NH2 / II: Ac-C[tBuAla]PE[dK]PYCFADPY[Nle]CA-NH2 / III: Ac-C[tBuAla]PE[dK]PYCFADPY[Nle]CA-NH2 (linker I:4-I:11-I:18, II:1-II:8-II:15, III:1-III:8-III:15 via TATA; linker I:N-II:5-III:5 via X1) [BCY13289] |  |  | 45.8 | 0.08 nM | 
BCY14335: EphA2:CD137 1:2; BCY14327 (Lys 8) + 2x BCY8928; linker N-(acid-PEG3)-N-bis(PEG3-azide) (peptide 1 {Palmitoyl‑Glu‑LysN3-Pent4ynoyl}-A[hArg]DC[Hyp]LVNPLCLKP[dD]W[hArg]C; peptide 2 Ac-C[tBuAla]PE[dK](Pent4ynoyl)PYCFADPY[Nle]CA; linker I:4-I:11-I:18, II:1-II:8-II:15 via TATA (inferred); not fully specified (some residues); also: 1:2 complex: linker bis(PEG3-azide) clicked to dLys(PYA)4 of two BCY8928 copies, one copy shown) | 7.14 fold | 0.94 fold |  |  | 
BCY12725: EphA2:CD137 1:2; BCY9594 + 2x BCY12147; linker N-(acid-PEG3)-N-bis(PEG3-azide) (peptide 1 A[hArg]DC[Hyp]LVNPLCLHP[dD]W[hArg]C; peptide 2 Ac-C[tBuAla]PE[dK](PYA(3))PYCFANPY[Nle]C; linker I:4-I:11-I:18, II:1-II:8-II:15 via TATA; not fully specified (N-terminus, bridges); also: chain 2 present twice on linker, EphA2:CD137 1:2) | 0.1 fold | 0.7 fold |  |  | 
I: A[hArg]DC[Hyp]LVNPLCL[Aad]P[dD]W[hArg]C-NH2 / II: Ac-C[tBuAla]PE[dK]PYCFADPY[Nle]CA-NH2 / III: Ac-C[tBuAla]PE[dK]PYCFADPY[Nle]CA-NH2 (linker I:4-I:11-I:18, II:1-II:8-II:15, III:1-III:8-III:15 via TATA; linker I:N-II:5-III:5 via X1) [BCY13286] |  |  | 34.1 | 0.11 nM | 

Source: patent US20230129258A1, “HETEROTANDEM BICYCLIC PEPTIDE COMPLEXES” (BicycleTx Limited, priority 2019, published 2023)
